Source: US20230263825A1, “ANTI-CANCER ACTIVITY OF PERBORATE SALTS” (priority 2020, published 2023)

Experiments:
Experiment in all cases: MTS cytotoxicity assay
Format in all cases: cell-based
[1] = test system: DMS114 cells (small cell lung cancer cells)
Protocol: (§1) An MTS reduction (MTS (3-(4,5-dimethylthiazol-2-yl)-5-(3-carboxymethoxyphenyl)-2-(4-sulfophenyl)-2H-tetrazolium) assay) was conducted to analyze the cytotoxic effect of sodium perborate tetrahydrate on lung, chordoma and pancreatic cells and normal cells. In this method, cell viability is determined via the activity of mitochondrial dehydrogenase enzyme, which reduces the tetrazolium dye MTS to its […] formazan (absorbance maximum of 490 nm in PBS).
(§2) Cells were counted and seeded in 96-well culture dishes. […] The positive control comprised 20% Dimethyl Sulfoxide and the negative control comprised complete growth media. Seeding densities were as follows: DMS114: 20.000 cells/well; MRC5: 5.000 cells/well; CH22: 2.000 cells/well; JHC7, UM-Chor1, MUG-Chor1, UCH1 and NPH: 5.000 cells/well; PSN1: 10.000 cells/well; BxPC3 and ASPC: 7.500 cells/well. The effect of sodium perborate tetrahydrate on cell viability was measured as follows. The cell culture medium was discarded and 100 μl of MTS solution (10% glucose solution and 1% MTS-PMS solution in PBS) was added into each well. After 1 hour incubation in a humidified incubator, an absorbance reading was taken to determine mitochondrial dehydrogenase activity and cell survival was calculated relative to the negative control.

[2] = test system: chordoma (CH22, JHC7, UM-Chor1, MUG-Chor1, U-CH1) cells
Protocol: as §1, §2

[3] = test system: normal cells (MRC5, NPH)
Protocol: as §1, §2

[4] = test system: pancreatic cancer (PSN1, BxPC3 and ASPC) cells
Protocol: as §1, §2

O.O.O.O.[Na+].[O-]B1OO1 [sodium perborate tetrahydrate]
cell survival of lung cancer cell lines [1]: effective in decreasing cell survival
EC50 (dose that kills 50% of cells) ([1]; DMS114): 15 µg/mL
time to maximum effect on DMS114 cells ([1]; FIG. 3A): ≤ 1 days
toxicity compared with other boron derivatives ([1]; FIGS. 23A-C, same biological model): significantly less toxic than boric acid and sodium pentaborate pentahydrate
cell survival of chordoma cell lines [2]: effective in decreasing cell survival
cell survival of normal cell lines [3]: minimal impact on the cell survival
cell survival of pancreatic cell lines [4]: effective in decreasing cell survival
